Laboratory results: article PMC8341145 (RSC Chemical Biology, 2021)

Key:
Experiment in all cases: CYP inhibition assay
Format in all cases: cell-based
[1] = biological target: CYP2C19 (Homo sapiens, UniProt P33261)
[2] = biological target: CYP3A4 (Homo sapiens, UniProt P08684)
[3] = biological target: CYP2D6 (Homo sapiens, UniProt P10635)
[4] = system: CYP1A; details: read-out: CYP1A
[5] = biological target: T1, CYP2C8 (Homo sapiens, UniProt P10632)
T1 sequence (P10632 1-490): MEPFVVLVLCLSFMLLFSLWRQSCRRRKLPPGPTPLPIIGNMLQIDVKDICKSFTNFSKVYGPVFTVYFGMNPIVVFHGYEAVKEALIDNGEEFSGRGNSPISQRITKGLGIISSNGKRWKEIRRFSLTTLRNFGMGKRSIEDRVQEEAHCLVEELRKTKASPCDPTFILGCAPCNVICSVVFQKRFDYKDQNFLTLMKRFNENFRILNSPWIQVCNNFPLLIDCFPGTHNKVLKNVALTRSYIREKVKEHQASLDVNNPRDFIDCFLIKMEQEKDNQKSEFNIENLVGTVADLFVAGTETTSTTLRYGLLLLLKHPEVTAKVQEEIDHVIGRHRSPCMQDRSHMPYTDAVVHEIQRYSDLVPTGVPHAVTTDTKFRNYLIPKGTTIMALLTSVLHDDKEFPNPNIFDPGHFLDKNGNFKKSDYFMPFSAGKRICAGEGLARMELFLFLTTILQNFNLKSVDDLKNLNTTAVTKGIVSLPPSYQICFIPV

[6] = biological target: CYP2C9 (Homo sapiens, UniProt P11712)
Sequence of CYP2C9 (P11712 whole entry): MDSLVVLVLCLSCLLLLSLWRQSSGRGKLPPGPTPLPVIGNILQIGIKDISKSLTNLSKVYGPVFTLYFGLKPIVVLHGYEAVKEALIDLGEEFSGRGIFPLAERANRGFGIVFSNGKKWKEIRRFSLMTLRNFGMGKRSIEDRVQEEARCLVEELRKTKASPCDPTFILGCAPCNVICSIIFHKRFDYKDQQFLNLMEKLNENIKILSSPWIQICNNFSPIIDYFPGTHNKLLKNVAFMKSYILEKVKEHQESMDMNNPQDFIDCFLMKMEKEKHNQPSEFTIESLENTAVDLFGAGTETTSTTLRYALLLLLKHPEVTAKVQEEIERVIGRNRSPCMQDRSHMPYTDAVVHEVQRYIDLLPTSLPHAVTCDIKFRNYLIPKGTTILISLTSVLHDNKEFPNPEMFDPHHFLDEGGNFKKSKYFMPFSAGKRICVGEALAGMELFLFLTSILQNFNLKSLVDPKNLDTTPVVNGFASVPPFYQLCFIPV

Sequence of CYP2C19 (P33261 whole entry): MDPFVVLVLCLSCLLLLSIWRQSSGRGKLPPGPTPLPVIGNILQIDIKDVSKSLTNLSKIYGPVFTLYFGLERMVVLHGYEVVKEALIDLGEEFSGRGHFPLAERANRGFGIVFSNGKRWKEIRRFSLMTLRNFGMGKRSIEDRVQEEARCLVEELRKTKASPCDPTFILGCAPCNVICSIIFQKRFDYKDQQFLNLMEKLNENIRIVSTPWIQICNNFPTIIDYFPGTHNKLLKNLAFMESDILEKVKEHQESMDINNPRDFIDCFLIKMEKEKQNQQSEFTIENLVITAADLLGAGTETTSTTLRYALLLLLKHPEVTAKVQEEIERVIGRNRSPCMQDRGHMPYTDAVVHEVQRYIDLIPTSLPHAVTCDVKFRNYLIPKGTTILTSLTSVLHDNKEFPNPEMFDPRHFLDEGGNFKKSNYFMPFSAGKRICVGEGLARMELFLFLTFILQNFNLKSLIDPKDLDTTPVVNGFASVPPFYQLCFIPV
Sequence of CYP3A4 (P08684 2-503): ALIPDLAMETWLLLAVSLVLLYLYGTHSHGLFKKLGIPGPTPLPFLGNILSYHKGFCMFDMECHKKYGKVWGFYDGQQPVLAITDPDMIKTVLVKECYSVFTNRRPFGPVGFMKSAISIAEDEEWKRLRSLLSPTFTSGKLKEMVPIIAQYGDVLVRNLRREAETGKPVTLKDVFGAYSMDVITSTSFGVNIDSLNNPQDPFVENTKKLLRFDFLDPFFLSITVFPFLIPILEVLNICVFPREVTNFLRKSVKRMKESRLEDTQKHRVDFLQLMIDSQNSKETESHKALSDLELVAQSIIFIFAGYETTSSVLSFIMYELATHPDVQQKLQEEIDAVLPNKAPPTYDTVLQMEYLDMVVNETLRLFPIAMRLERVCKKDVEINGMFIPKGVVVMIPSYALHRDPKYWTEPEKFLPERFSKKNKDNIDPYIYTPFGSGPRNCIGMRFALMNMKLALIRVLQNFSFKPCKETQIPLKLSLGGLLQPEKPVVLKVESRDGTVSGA
Sequence of CYP2D6 (P10635 whole entry): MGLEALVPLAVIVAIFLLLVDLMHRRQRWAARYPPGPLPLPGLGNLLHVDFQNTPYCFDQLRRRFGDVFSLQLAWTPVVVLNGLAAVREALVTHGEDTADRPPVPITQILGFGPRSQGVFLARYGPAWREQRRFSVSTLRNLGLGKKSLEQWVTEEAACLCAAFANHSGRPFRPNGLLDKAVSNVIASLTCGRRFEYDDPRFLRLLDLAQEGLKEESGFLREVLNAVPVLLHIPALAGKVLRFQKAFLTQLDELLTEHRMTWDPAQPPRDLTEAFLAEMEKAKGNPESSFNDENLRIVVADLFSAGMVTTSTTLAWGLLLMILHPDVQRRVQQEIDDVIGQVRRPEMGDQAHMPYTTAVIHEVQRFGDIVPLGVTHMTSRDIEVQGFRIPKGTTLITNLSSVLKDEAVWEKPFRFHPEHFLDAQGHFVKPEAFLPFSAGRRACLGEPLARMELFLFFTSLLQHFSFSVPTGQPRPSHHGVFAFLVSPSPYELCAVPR

IC50 [1]	IC50 [2]	IC50 [3]	IC50 [4]	IC50 [5]	IC50 [6]	SMILES
< 400 nM	400 ± 60 nM	2710 ± 120 nM	10400 ± 410 nM	640 ± 90 nM	3330 ± 710 nM	CN(C[c-]1cccc1)CC(O)(Cn1cncn1)c1ccc(F)cc1F.Cl.[Fe+2].c1cc[cH-]c1 (stereo not shown) [2a, N-(ferrocenylmethyl)-2-(2,4-difluorophenyl)-2-hydroxy-N-methyl-3-(1H-1,2,4-triazol-1-yl)propan-1-aminium chloride]
–	–	–	> 100000 nM	–	–	OC(Cn1cncn1)(Cn1cncn1)c1ccc(F)cc1F [Fluconazole]
